# Data reported in the supplement of paper PMC10307832.
# Assays:
# Assay in all cases: relative viability (nuclei count vs DMSO), 5 days (fraction); higher = more cells survive
# [1] = system: SK-LU-1
# How it was run: (§1)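 Relative viability is defined as nuclei in treated wells over nuclei in vehicle wells. Duplicate plates were run and medians reported. Lung cancer cell lines in 1536-well plates were dosed by pin tool one day after seeding, with one drug or with a fixed anchor-drug dose plus five library-drug doses (not always all listed) in √10 steps, and nuclei were counted after 5 days.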
# [2] = system: NCI-H1734
# How it was run: as §1
# [3] = system: HCC-78
# How it was run: as §1
# [4] = system: HCC-15
# How it was run: as §1
# [5] = system: LXF-289
# How it was run: as §1
# [6] = system: NCI-H1915
# How it was run: as §1
# [7] = system: NCI-H358
# How it was run: as §1
# [8] = system: NCI-H1975
# How it was run: as §1
# [9] = system: NCI-H1755
# How it was run: as §1
# [10] = system: NCI-H2228
# How it was run: as §1
# [11] = system: NCI-H2347
# How it was run: as §1
# [12] = system: LC-2-ad
# How it was run: as §1
# [13] = system: PC-3 [JPC-3]
# How it was run: as §1
# [14] = system: RERF-LC-KJ
# How it was run: as §1
# [15] = system: NCI-H1792
# How it was run: as §1
# [16] = system: SW 1573
# How it was run: as §1
# [17] = system: A-427
# How it was run: as §1
# [18] = system: NCI-H647
# How it was run: as §1
# [19] = system: LOU-NH91
# How it was run: as §1
# [20] = system: NCI-H460
# How it was run: as §1
# [21] = system: HOP-62
# How it was run: as §1
# [22] = system: NCI-H2126
# How it was run: as §1
smiles,measurement,setting,value
NC(=O)Nc1cc(-c2cccc(F)c2)sc1C(=O)N[C@H]1CCCNC1 [AZD7762] + C[C@]1(O)C[C@@H](c2nc(-c3ccc4ccc(-c5ccccc5)nc4c3)c3c(N)nccn32)C1 [Linsitinib] (partner 1 µM),relative viability,[1]; first compound 0.01 µM,1.1
same,relative viability,[1]; first compound 0.03162 µM,0.804
same,relative viability,[1]; first compound 0.1 µM,0.358
same,relative viability,[1]; first compound 0.3162 µM,0.218
same,relative viability,[1]; first compound 1 µM,0.251
same,relative viability,[2]; first compound 0.01 µM,0.885
same,relative viability,[2]; first compound 0.03162 µM,0.887
same,relative viability,[2]; first compound 0.1 µM,1.05
same,relative viability,[2]; first compound 0.3162 µM,0.869
same,relative viability,[2]; first compound 1 µM,0.734
same,relative viability,[3]; first compound 0.01 µM,0.624
same,relative viability,[3]; first compound 0.03162 µM,0.553
same,relative viability,[3]; first compound 0.1 µM,0.581
same,relative viability,[3]; first compound 0.3162 µM,0.519
same,relative viability,[3]; first compound 1 µM,0.345
same,relative viability,[4]; first compound 0.01 µM,0.886
same,relative viability,[4]; first compound 0.03162 µM,0.918
same,relative viability,[4]; first compound 0.1 µM,0.915
same,relative viability,[4]; first compound 0.3162 µM,0.93
same,relative viability,[4]; first compound 1 µM,0.985
same,relative viability,[5]; first compound 0.01 µM,0.957
same,relative viability,[5]; first compound 0.03162 µM,0.938
same,relative viability,[5]; first compound 0.1 µM,1.01
same,relative viability,[5]; first compound 0.3162 µM,1.03
same,relative viability,[5]; first compound 1 µM,1.06
same,relative viability,[6]; first compound 0.01 µM,1.09
same,relative viability,[6]; first compound 0.03162 µM,1.1
same,relative viability,[6]; first compound 0.1 µM,1.19
same,relative viability,[6]; first compound 0.3162 µM,1.2
same,relative viability,[6]; first compound 1 µM,1.06
same,relative viability,[7]; first compound 0.01 µM,0.695
same,relative viability,[7]; first compound 0.03162 µM,0.745
same,relative viability,[7]; first compound 0.1 µM,0.711
same,relative viability,[7]; first compound 0.3162 µM,0.617
same,relative viability,[7]; first compound 1 µM,0.42
same,relative viability,[8]; first compound 0.01 µM,1.07
same,relative viability,[8]; first compound 0.03162 µM,0.888
same,relative viability,[8]; first compound 0.1 µM,0.881
same,relative viability,[8]; first compound 0.3162 µM,0.681
same,relative viability,[8]; first compound 1 µM,0.482
same,relative viability,[9]; first compound 0.01 µM,1.03
same,relative viability,[9]; first compound 0.03162 µM,1.06
same,relative viability,[9]; first compound 0.1 µM,1.06
same,relative viability,[9]; first compound 0.3162 µM,1.03
same,relative viability,[9]; first compound 1 µM,0.646
same,relative viability,[10]; first compound 0.01 µM,0.792
same,relative viability,[10]; first compound 0.03162 µM,0.478
same,relative viability,[10]; first compound 0.1 µM,0.734
same,relative viability,[10]; first compound 0.3162 µM,0.289
same,relative viability,[10]; first compound 1 µM,0.242
same,relative viability,[11]; first compound 0.01 µM,1.09
same,relative viability,[11]; first compound 0.03162 µM,1.01
same,relative viability,[11]; first compound 0.1 µM,1.15
same,relative viability,[11]; first compound 0.3162 µM,1.1
same,relative viability,[11]; first compound 1 µM,1.04
same,relative viability,[12]; first compound 0.01 µM,0.854
same,relative viability,[12]; first compound 0.03162 µM,0.929
same,relative viability,[12]; first compound 0.1 µM,0.787
same,relative viability,[12]; first compound 0.3162 µM,0.674
same,relative viability,[12]; first compound 1 µM,0.437
same,relative viability,[13]; first compound 0.01 µM,0.929
same,relative viability,[13]; first compound 0.03162 µM,0.966
same,relative viability,[13]; first compound 0.1 µM,0.999
same,relative viability,[13]; first compound 0.3162 µM,0.987
same,relative viability,[13]; first compound 1 µM,0.927
same,relative viability,[14]; first compound 0.01 µM,0.923
same,relative viability,[14]; first compound 0.03162 µM,0.879
same,relative viability,[14]; first compound 0.1 µM,0.849
same,relative viability,[14]; first compound 0.3162 µM,0.908
same,relative viability,[14]; first compound 1 µM,0.842
same,relative viability,[15]; first compound 0.01 µM,0.604
same,relative viability,[15]; first compound 0.03162 µM,0.588
same,relative viability,[15]; first compound 0.1 µM,0.624
same,relative viability,[15]; first compound 0.3162 µM,0.599
same,relative viability,[15]; first compound 1 µM,0.707
same,relative viability,[16]; first compound 0.01 µM,0.843
same,relative viability,[16]; first compound 0.03162 µM,0.989
same,relative viability,[16]; first compound 0.1 µM,0.99
same,relative viability,[16]; first compound 0.3162 µM,0.891
same,relative viability,[16]; first compound 1 µM,0.752
same,relative viability,[17]; first compound 0.01 µM,1.13
same,relative viability,[17]; first compound 0.03162 µM,1.18
same,relative viability,[17]; first compound 0.1 µM,1.22
same,relative viability,[17]; first compound 0.3162 µM,1.13
same,relative viability,[17]; first compound 1 µM,0.976
same,relative viability,[18]; first compound 0.01 µM,1.37
same,relative viability,[18]; first compound 0.03162 µM,1.3
same,relative viability,[18]; first compound 0.1 µM,1.05
same,relative viability,[18]; first compound 0.3162 µM,0.462
same,relative viability,[18]; first compound 1 µM,0.153
same,relative viability,[19]; first compound 0.01 µM,1.01
same,relative viability,[19]; first compound 0.03162 µM,0.966
same,relative viability,[19]; first compound 0.1 µM,0.933
same,relative viability,[19]; first compound 0.3162 µM,0.794
same,relative viability,[19]; first compound 1 µM,0.57
same,relative viability,[20]; first compound 0.01 µM,0.975
same,relative viability,[20]; first compound 0.03162 µM,0.727
same,relative viability,[20]; first compound 0.1 µM,0.719
same,relative viability,[20]; first compound 0.3162 µM,0.135
same,relative viability,[20]; first compound 1 µM,0.0126
same,relative viability,[21]; first compound 0.01 µM,1.04
same,relative viability,[21]; first compound 0.03162 µM,1.09
same,relative viability,[21]; first compound 0.1 µM,1.32
same,relative viability,[21]; first compound 0.3162 µM,0.891
same,relative viability,[21]; first compound 1 µM,0.987
same,relative viability,[22]; first compound 0.01 µM,0.711
same,relative viability,[22]; first compound 0.03162 µM,0.758
same,relative viability,[22]; first compound 0.1 µM,0.763
same,relative viability,[22]; first compound 0.3162 µM,0.706
same,relative viability,[22]; first compound 1 µM,0.805
